Laboratory results taken from ChEMBL document CHEMBL4406817, “Cell-active carbazole derivatives as inhibitors of the zika virus protease” (Eur J Med Chem, 2019).
Calls of active or inactive are those of the source. No cut-off for these calls is given here.

Biological target: T1, Nonstructural protein 3 (Zika virus, UniProt A0A024AXB9)
Experiment: Inhibition of N-terminal His-tagged Zika virus NS2B (49 to 95 residues) - NS3 (1 to 185 residues) protease domain expressed in Escherichia coli Bl21(DE3) using TAMRA-RRRRSAG-GXL570 as substrate preincubated for 30 mins followed by substrate addition measured after 1 hr by fluorescence based assay
Conditions: not given

T1 sequence (A0A024AXB9 whole entry, the tested form may be a part): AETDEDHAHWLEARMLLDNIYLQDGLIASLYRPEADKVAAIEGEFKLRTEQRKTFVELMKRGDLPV

Compound | IC50
O=C1C=C/C(=N/Nc2ccc([N+](=O)[O-])cc2Cl)C=C1C(=O)Nc1cccc(Cl)c1 | 0.38 µM

Biological target: T1, Nonstructural protein 3
Experiment: Inhibition of N-terminal His-tagged Zika virus NS2B (46 to 99 residues) - NS3 (1 to 187 residues) protease domain expressed in Rosetta2-(DE3) assessed as inhibitory constant using Boc-Gly-Arg-Arg-AMC as substrate and measured for 10 mins by fluorescence based assay
Conditions: not given

Compound | Ki
COc1ccc(Cl)c2sc(NC(=O)c3ccccc3NS(=O)(=O)c3ccc(C)cc3)nc12 | 9 µM

Tested on: not listed separately
Experiment: Selectivity index, ratio of CC50 for cytotoxicity against human HuH7 cells to EC50 for antiviral activity against H/PF/2013 Zika virus infected in human HuH7 cells
Assay type: toxicity, cell-based
Conditions: not given

Compound | Ratio CC50/EC50
COc1cccc(S(=O)(=O)n2c3ccc(Br)cc3c3cc(-c4cccc(C(=N)N)c4)ccc32)c1 | Not Active

Same assay, conditions: HuH7 cells, read-out: Ratio CC50/EC50

Compound | selectivity ratio
COc1cccc(Cn2c3ccc(Br)cc3c3cc(-c4cccc(C(=N)N)c4)ccc32)c1 | 2.3
N=C(N)c1cccc(Cn2c3ccc(Br)cc3c3cc(Br)ccc32)c1 | 2.51
COc1cccc(S(=O)(=O)n2c3ccc(-c4cccc(C(=N)N)c4)cc3c3cc(-c4cccc(C(=N)N)c4)ccc32)c1 | > 4
COc1cccc(Cn2c3ccc(-c4cccc(C(=N)N)c4)cc3c3cc(-c4cccc(C(=N)N)c4)ccc32)c1 | 3.4
COc1cccc(Cn2c3ccc(-c4cccc(C#N)c4)cc3c3cc(-c4cccc(C(=N)N)c4)ccc32)c1 | 2.8
COc1cccc(S(=O)(=O)n2c3ccc(-c4cccc(C#N)c4)cc3c3cc(-c4cccc(C(=N)N)c4)ccc32)c1 | 2.37
N=C(N)c1cccc(-c2ccc3c(c2)c2cc(Br)ccc2n3S(=O)(=O)c2cccc(C(=N)N)c2)c1 | 4.2
Cn1c2ccc(-c3cccc(C(=N)N)c3)cc2c2cc(-c3cccc(C(=N)N)c3)ccc21 | 38

Biological target: Nonstructural protein 3 (Zika virus) (UniProt A0A024AXB9)
Sequence (A0A024AXB9 as listed by the source): as the sequence (A0A024AXB9 whole entry, the tested form may be a part) above
Experiment: Non-competitive inhibition of N-terminal unlinked Zika virus NS2B (45 to 96 residues) - NS3 (1 to 177 residues) protease domain expressed in Escherichia coli Bl21(DE3) using Bz-nKRR-AMC as substrate preincubated for 30 mins followed by substrate addition and measured for every 60 sec over 12 mins by fluorescence based Lineweaver-burk plot analysis
Conditions: not given

Compound | inhibition
Cn1c2ccc(-c3cccc(C(=N)N)c3)cc2c2cc(-c3cccc(C(=N)N)c3)ccc21 | Active

Biological target: T1, Nonstructural protein 3
Experiment: Inhibition of N-terminal linked Zika virus NS2B (45 to 96 residues) - NS3 (1 to 177 residues) protease domain expressed in Escherichia coli Bl21(DE3) using Bz-nKRR-AMC as substrate preincubated for 15 mins followed by substrate addition and measured by fluorescence based assay
Conditions: not given

Compound | IC50
Cn1c2ccc(-c3cccc(C(=N)N)c3)cc2c2cc(-c3cccc(C(=N)N)c3)ccc21 | 3.65 µM

Tested on: not listed separately
Experiment: Cytotoxicity against human HuH7 cells assessed as reduction in cell viability incubated for 48 hrs by cellTiter-Glo assay
Assay type: cell-based, Huh-7
Conditions: not given

Compound | CC50 at 48 h
COc1cccc(Cn2c3ccc(Br)cc3c3cc(-c4cccc(C(=N)N)c4)ccc32)c1 | 5.3 µM
N=C(N)c1cccc(Cn2c3ccc(Br)cc3c3cc(Br)ccc32)c1 | 12.8 µM
COc1cccc(S(=O)(=O)n2c3ccc(Br)cc3c3cc(-c4cccc(C(=N)N)c4)ccc32)c1 | 5.22 µM
COc1cccc(S(=O)(=O)n2c3ccc(-c4cccc(C(=N)N)c4)cc3c3cc(-c4cccc(C(=N)N)c4)ccc32)c1 | > 100 µM
COc1cccc(Cn2c3ccc(-c4cccc(C(=N)N)c4)cc3c3cc(-c4cccc(C(=N)N)c4)ccc32)c1 | 22.7 µM
COc1cccc(Cn2c3ccc(-c4cccc(C#N)c4)cc3c3cc(-c4cccc(C(=N)N)c4)ccc32)c1 | 3.3 µM
COc1cccc(S(=O)(=O)n2c3ccc(-c4cccc(C#N)c4)cc3c3cc(-c4cccc(C(=N)N)c4)ccc32)c1 | 37.9 µM
N=C(N)c1cccc(-c2ccc3c(c2)c2cc(Br)ccc2n3S(=O)(=O)c2cccc(C(=N)N)c2)c1 | 35.7 µM
Cn1c2ccc(-c3cccc(C(=N)N)c3)cc2c2cc(-c3cccc(C(=N)N)c3)ccc21 | 47.5 µM

Tested on: not listed separately
Experiment: Cytotoxicity against human A549 cells assessed as reduction in cell viability incubated for 42 hrs by WST-8 assay
Assay type: cell-based
Conditions: not given

Compound | CC50 at 42 h
O=C1C=C/C(=N/Nc2ccc([N+](=O)[O-])cc2Cl)C=C1C(=O)Nc1cccc(Cl)c1 | 48.8 µM

Tested on: not listed separately
Experiment: Selectivity index, ratio of EC50 of antiviral activity against Zika virus infected in human A549 cells to IC50 of inhibition of N-terminal His6-tagged Zika virus NS2B (49 to 95 residues) - NS3 (1 to 185 residues) protease domain expressed in Escherichia coli Bl21(DE3)
Assay type: toxicity
Conditions: not given

Compound | Selectivity Index
O=C1C=C/C(=N/Nc2ccc([N+](=O)[O-])cc2Cl)C=C1C(=O)Nc1cccc(Cl)c1 | 48

Tested on: not listed separately
Experiment: Selectivity index, ratio of EC50 of antiviral activity against Zika virus infected in human HuH7 cells to IC50 of inhibition of N-terminal unlinked Zika virus NS2B (45 to 96 residues) - NS3 (1 to 177 residues) protease domain expressed in Escherichia coli Bl21(DE3)
Assay type: toxicity
Conditions: not given

Compound | Selectivity Index
COc1cccc(S(=O)(=O)n2c3ccc(-c4cccc(C(=N)N)c4)cc3c3cc(-c4cccc(C(=N)N)c4)ccc32)c1 | 1 to 10
COc1cccc(Cn2c3ccc(-c4cccc(C(=N)N)c4)cc3c3cc(-c4cccc(C(=N)N)c4)ccc32)c1 | 1 to 10
COc1cccc(S(=O)(=O)n2c3ccc(-c4cccc(C#N)c4)cc3c3cc(-c4cccc(C(=N)N)c4)ccc32)c1 | 1 to 10
N=C(N)c1cccc(-c2ccc3c(c2)c2cc(Br)ccc2n3S(=O)(=O)c2cccc(C(=N)N)c2)c1 | 1 to 10
Cn1c2ccc(-c3cccc(C(=N)N)c3)cc2c2cc(-c3cccc(C(=N)N)c3)ccc21 | 3

Tested on: Zika virus
Experiment: Antiviral activity against Zika virus H/PF/2013 infected in human HuH7 cells assessed as reduction in viral titer incubated for 24 hrs by plague assay
Assay type: functional, organism-based
Conditions: not given

Compound | EC50
COc1cccc(S(=O)(=O)n2c3ccc(Br)cc3c3cc(-c4cccc(C(=N)N)c4)ccc32)c1 | Not Active

Same assay, conditions: Zika virus, H/PF/2013, Huh-7, 24 h; read-out: EC50

Compound | EC50
COc1cccc(Cn2c3ccc(Br)cc3c3cc(-c4cccc(C(=N)N)c4)ccc32)c1 | 2.27 µM
N=C(N)c1cccc(Cn2c3ccc(Br)cc3c3cc(Br)ccc32)c1 | 5.09 µM
COc1cccc(S(=O)(=O)n2c3ccc(-c4cccc(C(=N)N)c4)cc3c3cc(-c4cccc(C(=N)N)c4)ccc32)c1 | 23.8 µM
COc1cccc(Cn2c3ccc(-c4cccc(C(=N)N)c4)cc3c3cc(-c4cccc(C(=N)N)c4)ccc32)c1 | 6.37 µM
COc1cccc(Cn2c3ccc(-c4cccc(C#N)c4)cc3c3cc(-c4cccc(C(=N)N)c4)ccc32)c1 | 1.95 µM
COc1cccc(S(=O)(=O)n2c3ccc(-c4cccc(C#N)c4)cc3c3cc(-c4cccc(C(=N)N)c4)ccc32)c1 | 16 µM
N=C(N)c1cccc(-c2ccc3c(c2)c2cc(Br)ccc2n3S(=O)(=O)c2cccc(C(=N)N)c2)c1 | 5.9 µM
Cn1c2ccc(-c3cccc(C(=N)N)c3)cc2c2cc(-c3cccc(C(=N)N)c3)ccc21 | 1.25 µM

Biological target: T1, Nonstructural protein 3
Experiment: Inhibition of N-terminal unlinked Zika virus NS2B (45 to 96 residues) - NS3 (1 to 177 residues) protease domain expressed in Escherichia coli Bl21(DE3) using Bz-nKRR-AMC as substrate preincubated for 15 mins followed by substrate addition and measured by fluorescence based assay
Conditions: not given

Compound | IC50
COc1cccc(Cn2c3ccc(Br)cc3c3cc(-c4cccc(C(=N)N)c4)ccc32)c1 | 4.04 µM
N=C(N)c1cccc(Cn2c3ccc(Br)cc3c3cc(Br)ccc32)c1 | 25.6 µM
COc1cccc(S(=O)(=O)n2c3ccc(Br)cc3c3cc(-c4cccc(C(=N)N)c4)ccc32)c1 | 8.1 µM
COc1cccc(S(=O)(=O)n2c3ccc(-c4cccc(C(=N)N)c4)cc3c3cc(-c4cccc(C(=N)N)c4)ccc32)c1 | 0.99 µM
COc1cccc(Cn2c3ccc(-c4cccc(C(=N)N)c4)cc3c3cc(-c4cccc(C(=N)N)c4)ccc32)c1 | 1.75 µM
COc1cccc(Cn2c3ccc(-c4cccc(C#N)c4)cc3c3cc(-c4cccc(C(=N)N)c4)ccc32)c1 | 1.91 µM
COc1cccc(S(=O)(=O)n2c3ccc(-c4cccc(C#N)c4)cc3c3cc(-c4cccc(C(=N)N)c4)ccc32)c1 | 0.82 µM
N=C(N)c1cccc(-c2ccc3c(c2)c2cc(Br)ccc2n3S(=O)(=O)c2cccc(C(=N)N)c2)c1 | 9.19 µM
Cn1c2ccc(-c3cccc(C(=N)N)c3)cc2c2cc(-c3cccc(C(=N)N)c3)ccc21 | 0.52 µM

Biological target: T1, Nonstructural protein 3
Experiment: Inhibition of N-terminal His6-tagged Zika virus NS2B (46 to 99 residues) - NS3 (1 to 187 residues) protease domain expressed in Rosetta2-(DE3) using Boc-Gly-Arg-Arg-AMC as substrate preincubated for 10 mins followed by substrate addition and measured for 6 mins by fluorescence based assay
Conditions: not given

Compound | IC50
COc1ccc(Cl)c2sc(NC(=O)c3ccccc3NS(=O)(=O)c3ccc(C)cc3)nc12 | 4.1 µM
